Assay [1] has as its target T1, Protein deacetylase HDAC6 (Homo sapiens, UniProt Q9UBN7).
T1 sequence (Q9UBN7 whole entry): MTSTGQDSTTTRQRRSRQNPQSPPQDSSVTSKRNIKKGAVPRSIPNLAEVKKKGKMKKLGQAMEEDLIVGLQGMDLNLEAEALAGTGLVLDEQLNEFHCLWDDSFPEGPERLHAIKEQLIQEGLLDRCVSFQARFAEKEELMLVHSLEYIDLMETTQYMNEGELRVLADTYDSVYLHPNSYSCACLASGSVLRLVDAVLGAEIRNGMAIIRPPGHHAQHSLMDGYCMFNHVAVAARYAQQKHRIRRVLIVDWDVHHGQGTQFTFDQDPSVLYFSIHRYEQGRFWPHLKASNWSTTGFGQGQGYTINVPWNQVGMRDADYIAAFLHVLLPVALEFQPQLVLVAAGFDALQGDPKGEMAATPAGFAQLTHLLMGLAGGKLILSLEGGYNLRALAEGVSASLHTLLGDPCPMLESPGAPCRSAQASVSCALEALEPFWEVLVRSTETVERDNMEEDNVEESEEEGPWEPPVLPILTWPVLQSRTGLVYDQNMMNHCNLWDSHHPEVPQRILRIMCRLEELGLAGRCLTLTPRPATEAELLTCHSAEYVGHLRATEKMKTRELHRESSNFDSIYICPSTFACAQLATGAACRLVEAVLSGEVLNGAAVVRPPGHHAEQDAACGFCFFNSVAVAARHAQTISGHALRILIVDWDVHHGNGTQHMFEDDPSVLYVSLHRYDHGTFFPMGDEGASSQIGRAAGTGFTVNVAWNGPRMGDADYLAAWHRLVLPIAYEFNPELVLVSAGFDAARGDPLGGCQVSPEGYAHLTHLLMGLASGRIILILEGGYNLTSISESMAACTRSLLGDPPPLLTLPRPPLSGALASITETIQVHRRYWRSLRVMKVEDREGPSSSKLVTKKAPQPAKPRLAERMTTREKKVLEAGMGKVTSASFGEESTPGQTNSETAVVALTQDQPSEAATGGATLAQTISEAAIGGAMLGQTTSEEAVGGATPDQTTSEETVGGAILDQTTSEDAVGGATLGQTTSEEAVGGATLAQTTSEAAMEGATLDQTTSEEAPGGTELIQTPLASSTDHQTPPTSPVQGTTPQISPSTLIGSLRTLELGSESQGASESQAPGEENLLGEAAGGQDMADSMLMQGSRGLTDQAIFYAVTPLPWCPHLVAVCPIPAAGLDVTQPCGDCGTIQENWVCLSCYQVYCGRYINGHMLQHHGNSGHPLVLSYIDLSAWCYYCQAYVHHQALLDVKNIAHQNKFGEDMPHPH
The assay is described as follows: Inhibition of recombinant full length human HDAC6 expressed in SF9 baculovirus using FAM- labelled acetylated peptide as substrate measured by Electrophoretic mobility shift assay.

Another assay has as its target T2, Histone deacetylase 8 (Homo sapiens, UniProt Q9BY41).
T2 sequence (Q9BY41 whole entry): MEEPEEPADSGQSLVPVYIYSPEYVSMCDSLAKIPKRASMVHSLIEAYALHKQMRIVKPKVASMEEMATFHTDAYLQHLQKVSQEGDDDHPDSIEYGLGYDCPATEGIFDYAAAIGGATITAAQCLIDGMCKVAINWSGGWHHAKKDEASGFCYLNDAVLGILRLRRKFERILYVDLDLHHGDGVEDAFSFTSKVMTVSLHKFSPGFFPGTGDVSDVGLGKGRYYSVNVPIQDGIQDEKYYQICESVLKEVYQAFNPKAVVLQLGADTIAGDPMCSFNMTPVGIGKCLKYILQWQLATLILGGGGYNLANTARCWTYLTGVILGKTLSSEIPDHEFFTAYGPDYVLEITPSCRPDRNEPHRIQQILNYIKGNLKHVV
The assay is described as follows: Inhibition of recombinant full length human HDAC8 expressed in SF9 baculovirus using FAM- labelled acetylated peptide as substrate measured by Electrophoretic mobility shift assay.

For the next assay, the target named is Histone deacetylase 3 (Homo sapiens, UniProt O15379). The assay is described as follows: Inhibition of recombinant full length human HDAC3 expressed in SF9 baculovirus using FAM- labelled acetylated peptide as substrate measured by Electrophoretic mobility shift assay.
Histone deacetylase 3, sequence (O15379 whole entry): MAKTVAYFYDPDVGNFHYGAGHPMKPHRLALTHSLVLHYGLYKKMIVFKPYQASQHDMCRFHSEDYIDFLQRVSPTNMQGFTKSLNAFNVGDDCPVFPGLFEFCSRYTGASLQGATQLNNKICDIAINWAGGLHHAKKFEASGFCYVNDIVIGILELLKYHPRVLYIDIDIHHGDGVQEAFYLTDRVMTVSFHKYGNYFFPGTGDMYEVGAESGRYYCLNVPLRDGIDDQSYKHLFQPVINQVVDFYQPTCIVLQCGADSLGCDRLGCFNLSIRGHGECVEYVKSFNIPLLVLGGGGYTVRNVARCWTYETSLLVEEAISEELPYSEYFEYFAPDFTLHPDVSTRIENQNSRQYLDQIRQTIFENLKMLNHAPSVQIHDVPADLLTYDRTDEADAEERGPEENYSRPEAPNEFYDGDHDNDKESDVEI
A further assay addresses T3, Histone deacetylase 11 (Homo sapiens, UniProt Q96DB2).
T3 sequence (Q96DB2 whole entry): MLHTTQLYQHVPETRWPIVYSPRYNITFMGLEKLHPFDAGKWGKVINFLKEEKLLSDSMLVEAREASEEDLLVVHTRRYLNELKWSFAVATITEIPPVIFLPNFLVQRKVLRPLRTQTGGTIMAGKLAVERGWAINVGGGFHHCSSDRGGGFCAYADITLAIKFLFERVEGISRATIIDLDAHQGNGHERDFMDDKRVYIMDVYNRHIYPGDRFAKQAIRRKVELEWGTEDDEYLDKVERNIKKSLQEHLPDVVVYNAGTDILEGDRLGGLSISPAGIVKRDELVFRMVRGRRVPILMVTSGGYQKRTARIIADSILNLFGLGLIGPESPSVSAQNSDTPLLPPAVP
The assay is described as follows: Inhibition of recombinant full length human HDAC11 expressed in SF9 baculovirus using FAM- labelled acetylated peptide as substrate measured by Electrophoretic mobility shift assay.

Assay [2] in a line: Selectivity ratio of IC50 for full length recombinant human HDAC3 to IC50 for full length recombinant human HDAC6.
A short description of assay [3]: Cytotoxicity against human MRC9 cells measured after 72 hrs by spectrophotometer method. Conditions: MRC9, 72 h. Format: cell-based.
A further assay has as its system MV4-11. The assay is described as follows: Cytotoxicity against human MV4-11 cells measured after 72 hrs by spectrophotometer method. In kind it is functional, cell-based. To be noted: MV4-11, 72 h.

Each structure is given as a SMILES string. Bounds are passed on as bounds.

Take `O=C(NO)c1ccc(CN(C(=O)c2c(F)c(F)c(F)c(F)c2F)C2CC2)cc1`: the IC50 in assay [1] was 18.4 nM; at Histone deacetylase 8, 971 nM; at Histone deacetylase 3, more than 1000 nM; at Histone deacetylase 11, more than 1000 nM; in assay [3] it was more than 50000 nM; in the assay with MV4-11, 7370 nM. The Ratio IC50 in assay [2] was more than 52.8.
In the case of `O=C(NO)c1ccc(NC(=O)c2ccc(C3CCCCC3)cc2)cc1`, the IC50 in assay [1] is 26.6 nM; at Histone deacetylase 8 it was 208 nM; at Histone deacetylase 3, 159 nM; at Histone deacetylase 11 it was 411 nM; in assay [3], more than 25000 nM; in the assay on MV4-11, 530 nM. In addition, the Ratio IC50 in assay [2] stood at 5.98.
Take `O=C(NO)c1ccc(NC(=O)c2ccc(N3CCOCC3)cc2)cc1`: the IC50 in assay [1] was 96.6 nM; at Histone deacetylase 8, 921 nM; on Histone deacetylase 3, more than 1000 nM; at Histone deacetylase 11, more than 1000 nM; in assay [3], more than 50000 nM; in the assay with MV4-11 it was 17100 nM. Further, the Ratio IC50 in assay [2] was more than 9.53.
Regarding `CC(C)N(Cc1ccc(C(=O)NO)cc1)C(=O)c1c(F)c(F)c(F)c(F)c1F`, the IC50 is 14 nM in assay [1]; 876 nM on Histone deacetylase 8; more than 1000 nM at Histone deacetylase 3; more than 1000 nM on Histone deacetylase 11; more than 15000 nM in assay [3]; 16400 nM in the assay on MV4-11. Further, the Ratio IC50 in assay [2] was determined as 62.6.
On to `O=C(NO)c1ccc(NC(=O)c2ccc(C3CC3)cc2)cc1`, for which the IC50 in assay [1] was 2.81 nM; at Histone deacetylase 8 it was 20.4 nM; at Histone deacetylase 3, 11.9 nM; on Histone deacetylase 11, 704 nM; in assay [3], more than 25000 nM; in the assay with MV4-11, 1080 nM. In assay [2], the Ratio IC50 turned out to be 4.23.
`O=C(/C=C/c1ccc(CN(C(=O)c2c(F)c(F)c(F)c(F)c2F)C2CC2)cc1)NO`: the IC50 is 12 nM in assay [1]; 420 nM on Histone deacetylase 8; 70 nM on Histone deacetylase 3; more than 1000 nM on Histone deacetylase 11; more than 25000 nM in assay [3]; 760 nM in the assay on MV4-11. In assay [2], the Ratio IC50 amounted to 5.83.
As for `CCN(C(=O)c1ccc(C(C)(C)C)cc1)c1ccc(C(=O)NO)cc1`, the IC50 was more than 1000 nM in assay [1]; 281 nM at Histone deacetylase 8; more than 1000 nM on Histone deacetylase 3; more than 1000 nM at Histone deacetylase 11; more than 25000 nM in assay [3]; 8230 nM in the assay with MV4-11.
`CC(C)(C)c1ccc(S(=O)(=O)Nc2ccc(C(=O)NO)cc2)cc1`: the IC50 is 2.01 nM in assay [1]; 13.3 nM on Histone deacetylase 8; 2.25 nM on Histone deacetylase 3; 44.2 nM on Histone deacetylase 11; more than 25000 nM in assay [3]; 1180 nM in the assay on MV4-11. In addition, the Ratio IC50 in assay [2] stood at 1.12.
For `CC(C)(C)c1ccc(C(=O)NCc2ccc(C(=O)NO)cc2)cc1`, the IC50 was 32.4 nM in assay [1]; 162 nM on Histone deacetylase 8; 15.2 nM at Histone deacetylase 3; more than 1000 nM on Histone deacetylase 11; more than 25000 nM in assay [3]; 570 nM in the assay with MV4-11.
As for `O=C(/C=C/c1ccc(CNC(=O)c2c(F)c(F)c(F)c(F)c2F)cc1)NO`, the IC50 in assay [1] was 14 nM; on Histone deacetylase 8, 283 nM; on Histone deacetylase 3 it was 13 nM; at Histone deacetylase 11, more than 1000 nM; in assay [3], more than 25000 nM; in the assay with MV4-11, 320 nM.
Turning to `CN(Cc1ccc(C(=O)NO)cc1)C(=O)c1c(F)c(F)c(F)c(F)c1F`, the IC50 in assay [1] is 17.3 nM; on Histone deacetylase 8, more than 1000 nM; at Histone deacetylase 3 it was 740 nM; at Histone deacetylase 11, more than 1000 nM; in assay [3], more than 25000 nM; in the assay on MV4-11, 3730 nM. In assay [2], the Ratio IC50 worked out at 42.8.
As for `O=C(NO)c1ccc(NC(=O)c2ccc(C(F)(F)F)cc2)cc1`, the IC50 in assay [1] is 22.6 nM; on Histone deacetylase 8, 220 nM; at Histone deacetylase 3, 243 nM; at Histone deacetylase 11 it was more than 1000 nM; in assay [3] it was more than 5000 nM; in the assay on MV4-11 it was 880 nM. Besides, the Ratio IC50 in assay [2] is 9.73.
Regarding `CC(C)(C)c1ccc(C(=O)N(Cc2ccc(C(=O)NO)cc2)C2CC2)cc1`, the IC50 was 20.9 nM in assay [1]; 269 nM at Histone deacetylase 8; 323 nM on Histone deacetylase 3; more than 1000 nM at Histone deacetylase 11; more than 25000 nM in assay [3]; 8570 nM in the assay on MV4-11. The Ratio IC50 in assay [2] stood at 12.9.
As for `O=C(NO)c1ccc(NC(=O)c2ccc(F)cc2)cc1`, the concentration for half-maximal inhibition (IC50) in assay [1] was 6.77 nM; at Histone deacetylase 8, 567 nM; on Histone deacetylase 3, 45.4 nM; at Histone deacetylase 11 it was more than 1000 nM; in assay [3] it was more than 25000 nM; in the assay on MV4-11, 3640 nM. In addition, the Ratio IC50 in assay [2] is 6.7.
In the case of `CC(C)(C)c1cccc(C(=O)Nc2ccc(C(=O)NO)cc2)c1`, the concentration for half-maximal inhibition (IC50) in assay [3] is more than 25000 nM; in the assay on MV4-11, 3880 nM.
Turning to `Cc1ccc(C(=O)Nc2ccc(C(=O)NO)cc2)cc1`, the IC50 in assay [1] is 1.6 nM; on Histone deacetylase 8, 21.6 nM; on Histone deacetylase 3, 10.9 nM; on Histone deacetylase 11 it was more than 1000 nM; in assay [3], more than 25000 nM; in the assay with MV4-11, 2400 nM. Besides, in assay [2], the Ratio IC50 came out at 6.81.
Take `CC(C)(C)c1ccc(CC(=O)Nc2ccc(C(=O)NO)cc2)cc1`: the IC50 in assay [1] is 13 nM; at Histone deacetylase 8 it was 74.3 nM; at Histone deacetylase 3 it was 3.74 nM; on Histone deacetylase 11, more than 1000 nM; in assay [3], more than 15000 nM; in the assay on MV4-11 it was 340 nM.
In the case of `CC(C)(C)c1ccc(NS(=O)(=O)c2ccc(C(=O)NO)cc2)cc1`, the IC50 was 17.5 nM in assay [1]; 9.4 nM on Histone deacetylase 8; 34.4 nM on Histone deacetylase 3; 223 nM on Histone deacetylase 11; more than 50000 nM in assay [3]; 7160 nM with MV4-11.
In the case of `CC(C)(C)c1ccc(NC(=O)c2ccc(C(=O)NO)cc2)cc1`, the IC50 is 10.4 nM in assay [1]; 43.9 nM on Histone deacetylase 8; 10.9 nM on Histone deacetylase 3; 447 nM on Histone deacetylase 11; more than 25000 nM in assay [3]; 1440 nM in the assay on MV4-11. For the same compound, in assay [2], the Ratio IC50 is 1.05.
Take `O=C(NO)c1ccc(NC(=O)c2c(F)c(F)c(F)c(F)c2F)cc1`: the IC50 was 1.46 nM in assay [1]; 14 nM at Histone deacetylase 8; 3.13 nM on Histone deacetylase 3; 700 nM at Histone deacetylase 11; more than 25000 nM in assay [3]; 1510 nM with MV4-11. For the same compound, the Ratio IC50 in assay [2] was 2.14.
Regarding `CC(C)(C)c1ccc(S(=O)(=O)NCc2ccc(C(=O)NO)cc2)cc1`, the IC50 in assay [1] is 41.9 nM; at Histone deacetylase 8, 622 nM; at Histone deacetylase 3, 297 nM; on Histone deacetylase 11, more than 1000 nM; in assay [3], more than 25000 nM; with MV4-11 it was 5030 nM. In addition, the Ratio IC50 in assay [2] was 7.09.

(Values after ChEMBL document CHEMBL4706499, “PTG-0861: A novel HDAC6-selective inhibitor as a therapeutic strategy in acute myeloid leukaemia” (Eur J Med Chem, 2020).)
